The results in this text go back to patent US10577373B2, “TYK2 inhibitors and uses thereof” (Nimbus Lakshmi, Inc., priority 2017, dated 2020).

Where two headings read alike, the source gives them in different places.

For assay [1], the system named is GM-CSF induced STAT5 phosphorylation mediated by the JAK2/JAK2 homdimeric complex. Description: GM-CSF Induced pSTAT5 in Human PBMC.
From the text: Human PBMC are isolated from buffy coat and are stored frozen for assays as needed.
Assay [2] concerns IL-12 induced STAT4 phophorylation mediated by Tyk2/JAK2 (heterodimeric complex). Description: IL-12 Induced pSTAT4 in Human PBMC. It is filed as cell-based. Particulars: 1.7 ng/mL IL-12. From the text:
The IL-12 Induced pSTAT4 assay evaluates the inhibition of IL-12 induced STAT4 phophorylation mediated by Tyk2/JAK2 (heterodimeric complex).

Where [3] appears, read: Homo sapiens, PBMC, 20 min, read-out: PBMC_GMCSF_pSTAT5 IC50, human PBMC, GM-CSF 5 ng/mL for 20 minutes, pSTAT5.

`CNc1cc(Nc2cccn(C3CCOCC3)c2=O)nc2c(C(=O)NC3CC3)cnn12` [I-329]: the IC50 (usually the concentration at which inhibition is half-maximal) in assay [1] (setting [3]) is > 2.5 µM; in assay [2], < 0.1 µM.
Take `CNc1cc(Nc2cccn(C3CCOCC3)c2=O)nc2c(C(=O)N[C@H]3C[C@H]3F)cnn12` [I-330]: the IC50 in assay [1] (setting [3]) is > 2.5 µM; in assay [2], < 0.1 µM.
As for `CNc1cc(Nc2cc(Cl)cn(-c3ccn(C4CC4)n3)c2=O)nc2c(C(=O)NC3CC3)cnn12` [I-331], the IC50 is > 12.5 µM in assay [1] (setting [3]) and < 0.1 µM in assay [2].
The like results for `CNc1cc(Nc2cc(Cl)cn(-c3ccn(C4CC4)n3)c2=O)nc2c(C(=O)N[C@H]3C[C@H]3F)cnn12` [I-332] were, in that order, > 2.5 µM and < 0.1 µM.
The like results for `CNc1cc(Nc2cc(Cl)cn(-c3ccc(C4CC4)nn3)c2=O)nc2c(C(=O)NC3CC3)cnn12` [I-333] were, in that order, > 12.5 µM and < 0.1 µM.
Turning to `CNc1cc(Nc2cc(Cl)cn(-c3ccc(C4CC4)nn3)c2=O)nc2c(C(=O)N[C@H]3C[C@H]3F)cnn12` [I-334], the IC50 is > 50 µM in assay [1] (setting [3]) and < 0.1 µM in assay [2].
In the case of `CNc1cc(Nc2cccn(-c3cc(C)nn3C)c2=O)nc2c(C(=O)NC3CCC3)cnn12` [I-342], the IC50 is > 12.5 µM in assay [1] (setting [3]) and < 0.1 µM in assay [2].
As for `CNc1cc(Nc2cccn([C@H]3CC[C@H](OC)CC3)c2=O)nc2c(C(=O)NC3CC3)cnn12` [I-343], the values for the IC50 in assay [1] (setting [3]) and in assay [2] were > 12.5 µM and < 0.1 µM, respectively.
On the same counts, the results for `CNc1cc(Nc2cccn([C@H]3CC[C@H](OC)CC3)c2=O)nc2c(C(=O)N[C@H]3C[C@H]3F)cnn12` [I-344] are > 12.5 µM and < 0.1 µM.
Consider `CNc1cc(Nc2cccn([C@H]3CC[C@H](OC)CC3)c2=O)nc2c(C(=O)NC3CCC3)cnn12` [I-345], for which the IC50 in assay [1] (setting [3]) was > 50 µM; in assay [2] it was < 0.1 µM.
The like results for `CNc1cc(Nc2cccnc2OC)nc2c(C(=O)NCC(C)(C)CO)cnn12` [I-346] were, in that order, > 2.5 µM and < 0.1 µM.
As for `[2H]C([2H])([2H])Oc1ncccc1Nc1cc(NC)n2ncc(C(=O)NCC(C)(C)CO)c2n1` [I-347], the IC50 in assay [1] (setting [3]) was > 50 µM; in assay [2] it was < 0.1 µM.
The like results for `CNc1cc(Nc2cccnc2OC2CC2)nc2c(C(=O)NCC(C)(C)CO)cnn12` [I-350] were, in that order, > 50 µM and < 0.1 µM.
The like results for `CNc1cc(Nc2cccn([C@H]3CCCOC3)c2=O)nc2c(C(=O)NC3CC3)cnn12` [I-352] were, in that order, > 50 µM and < 0.1 µM.
In the case of `CNc1cc(Nc2cccn([C@H]3CCCOC3)c2=O)nc2c(C(=O)NC3CCC3)cnn12` [I-354], the figures for the IC50 in assay [1] (setting [3]) and in assay [2] were > 2.5 µM and < 0.1 µM, respectively.
For the compound `CNc1cc(Nc2cccn([C@H]3CC[C@@H](OC)CC3)c2=O)nc2c(C(=O)N[C@H]3C[C@H]3F)cnn12` [I-357], the IC50 in assay [1] (setting [3]) is > 2.5 µM; in assay [2] it was < 0.1 µM.
The like results for `CNc1cc(Nc2cccn([C@H]3CC[C@@](C)(OC)CC3)c2=O)nc2c(C(=O)NC3CC3)cnn12` [I-359] were, in that order, > 12.5 µM and 0.1 to 0.5 µM.
For `CNc1cc(Nc2cccn([C@H]3CC[C@@](C)(OC)CC3)c2=O)nc2c(C(=O)N[C@H]3C[C@H]3F)cnn12` [I-360], the values for the IC50 in assay [1] (setting [3]) and in assay [2] were > 50 µM and < 0.1 µM, respectively.
Turning to `CNc1cc(Nc2cccn([C@H]3CC[C@](C)(OC)CC3)c2=O)nc2c(C(=O)N[C@H]3C[C@H]3F)cnn12` [I-362], the IC50 in assay [1] (setting [3]) was > 50 µM; in assay [2] it was < 0.1 µM.
The like results for `CNc1cc(Nc2cccn(CC3CCCCO3)c2=O)nc2c(C(=O)N[C@H]3C[C@H]3F)cnn12` (some centres unmarked) [I-365] were, in that order, > 50 µM and < 0.1 µM.
Consider `CNc1cc(Nc2cccn(-c3nc(C)co3)c2=O)nc2c(C(=O)NC3CC3)cnn12` [I-368], for which the IC50 in assay [1] (setting [3]) is > 12.5 µM; in assay [2] it was < 0.1 µM.
On the same counts, the results for `CNc1cc(Nc2cccn(-c3nc(C)co3)c2=O)nc2c(C(=O)N[C@H]3C[C@H]3F)cnn12` [I-369] are > 50 µM and < 0.1 µM.
On to `[2H]C([2H])([2H])Oc1ncccc1Nc1cc(NC)n2ncc(C(=O)N[C@H]3CC[C@@H]3O)c2n1` [I-373], for which the IC50 in assay [1] (setting [3]) is > 50 µM; in assay [2], < 0.1 µM.
As to `CNc1cc(Nc2cc(F)cn(-c3ccn(C)n3)c2=O)nc2c(C(=O)NC3CC3)cnn12` [I-378], the concentration for half-maximal inhibition (IC50) in assay [1] (setting [3]) was > 12.5 µM; in assay [2], < 0.1 µM.
With `CNc1cc(Nc2cc(F)cn(-c3ccn(C)n3)c2=O)nc2c(C(=O)N[C@H]3C[C@H]3F)cnn12` [I-379], the IC50 is > 2.5 µM in assay [1] (setting [3]) and < 0.1 µM in assay [2].
The like results for `CNc1cc(Nc2cc(F)cn(-c3cnn(C)c3)c2=O)nc2c(C(=O)NC3CC3)cnn12` [I-380] were, in that order, > 12.5 µM and < 0.1 µM.
`CNc1cc(Nc2cc(F)cn(-c3cnn(C)c3)c2=O)nc2c(C(=O)N[C@H]3C[C@H]3F)cnn12` [I-381]: the IC50 in assay [1] (setting [3]) is > 12.5 µM; in assay [2], < 0.1 µM.
Consider `CNc1cc(Nc2cc(F)cn(-c3cc(C)n(C)n3)c2=O)nc2c(C(=O)NC3CC3)cnn12` [I-384], for which the IC50 in assay [1] (setting [3]) is > 0.3 µM; in assay [2], < 0.1 µM.
For the compound `CNc1cc(Nc2cc(F)cn(-c3cc(C)n(C)n3)c2=O)nc2c(C(=O)N[C@H]3C[C@H]3F)cnn12` [I-385], the results for the IC50 in assay [1] (setting [3]) and in assay [2] were > 2.5 µM and < 0.1 µM, respectively.
In the case of `CNc1cc(Nc2cccn(-c3nc(C)co3)c2=O)nc2c(C(=O)NC3CCC3)cnn12` [I-386], the IC50 in assay [1] (setting [3]) is > 50 µM; in assay [2], < 0.1 µM.
Turning to `CNc1cc(Nc2cccnc2OC)nc2c(C(=O)NC3CCC3O)cnn12` (centres unmarked) [I-390, N-(2-hydroxycyclobutyl)-5-((2-methoxypyridin-3-yl)amino)-7-(methylamino) pyrazolo[1,5-a]pyrimidine-3-carboxamide], the IC50 in assay [1] (setting [3]) is > 50 µM; in assay [2], < 0.1 µM.
In the case of `CNc1cc(Nc2cccnc2OC2CC2)nc2c(C(=O)NC3CCC3O)cnn12` (centres unmarked) [I-392, 5-((2-cyclopropoxypyridin-3-yl)amino)-N-(2-hydroxycyclobutyl)-7-(methylamino)pyrazolo[1,5-a]pyrimidine-3-carboxamide], the IC50 in assay [1] (setting [3]) was > 50 µM; in assay [2], < 0.1 µM.
As to `CNc1cc(Nc2cccn(C3CCC4(CC3)OCCO4)c2=O)nc2c(C(=O)NC3CC3)cnn12` [I-393], the IC50 in assay [1] (setting [3]) was > 12.5 µM; in assay [2], < 0.1 µM.
`CNc1cc(Nc2cccnc2OC)nc2c(C(=O)N[C@H]3CC[C@@H]3O)cnn12` [I-395]: the IC50 in assay [1] (read-out: PBMC_GMCSF_pSTAT5 IC50, human PBMC, GM-CSF 5 ng/mL for 20 minutes, pSTAT5) was > 12.5 µM; in assay [2], < 0.1 µM.
`CNc1cc(Nc2cccnc2OC)nc2c(C(=O)N[C@@H]3CC[C@H]3O)cnn12` [I-396]: the IC50 was > 50 µM in assay [1] (setting [3]) and < 0.1 µM in assay [2].
The like results for `CNc1cc(Nc2cccnc2OC2CC2)nc2c(C(=O)N[C@H]3CC[C@@H]3O)cnn12` [I-397] were, in that order, > 50 µM and < 0.1 µM.
As for `CNc1cc(Nc2cccnc2OC2CC2)nc2c(C(=O)N[C@@H]3CC[C@@H]3O)cnn12` [I-401], the IC50 in assay [1] (setting [3]) is > 12.5 µM; in assay [2] it was < 0.1 µM.
As to `CNc1cc(Nc2cccn(-c3cnn(CC4CCOCC4)c3)c2=O)nc2c(C(=O)NC3CC3)cnn12` [I-406], the results for the IC50 in assay [1] (setting [3]) and in assay [2] were > 12.5 µM and 0.1 to 0.5 µM, respectively.
On the same counts, the results for `CNc1cc(Nc2cccn(-c3cnn(CC4CCOCC4)c3)c2=O)nc2c(C(=O)N[C@H]3C[C@H]3F)cnn12` [I-407] are > 12.5 µM and < 0.1 µM.
`CCONC(=O)c1cnn2c(NC)cc(Nc3cccnc3OC)nc12` [I-409, N-ethoxy-5-((2-methoxypyridin-3-yl)amino)-7-(methylamino)pyrazolo[1,5-a]pyrimidine-3-carboxamide]: the figures for the IC50 in assay [1] (setting [3]) and in assay [2] were > 12.5 µM and < 0.1 µM, respectively.
On the same counts, the results for `[2H]C([2H])([2H])Oc1ncccc1Nc1cc(NC)n2ncc(C(=O)N[C@@H]3CC[C@H]3O)c2n1` [I-410] are > 12.5 µM and < 0.1 µM.
On the same counts, the results for `CNc1cc(Nc2cccn(C[C@@H]3CCCCO3)c2=O)nc2c(C(=O)NC3CC3)cnn12` [I-413] are > 50 µM and < 0.1 µM.
In the case of `CNc1cc(Nc2cccn(C3CCC4(CC3)OCCO4)c2=O)nc2c(C(=O)N[C@@H]3C[C@@H]3F)cnn12` [I-415, N-((1R,2S)-2-fluorocyclopropyl)-7-(methylamino)-5-((2-oxo-1-(1,4-dioxaspiro 14.51 decan-8-yl)-1,2-dihydropyridin-3-yl)amino)pyrazolo[1,5-a]pyrimidine-3-carboxamide], the IC50 in assay [1] (setting [3]) is > 50 µM; in assay [2], < 0.1 µM.
The like results for `CNc1cc(Nc2cccnc2OC)nc2c(C(=O)N[C@@H]3CCC[C@H]3O)cnn12` [I-423, N-((1R,2R)-2-hydroxycyclopentyl)-5-((2-methoxypyridin-3-yl)amino)-7-(methylamino)pyrazolo[1,5-a]pyrimidine-3-carboxamide] were, in that order, > 50 µM and < 0.1 µM.
Take `CNc1cc(Nc2cccnc2OC)nc2c(C(=O)NCC3(CO)CC3)cnn12` [I-425]: the IC50 in assay [1] (Homo sapiens, PBMC, 20 min, read-out: PBMC_GMCSF_pSTAT5 IC50) was > 50 µM; in assay [2], < 0.1 µM.
For the compound `CNc1cc(Nc2cccnc2OC2CC2)nc2c(C(=O)NCC3(CO)CC3)cnn12` [I-426], the IC50 in assay [1] (setting [3]) is > 50 µM; in assay [2] it was < 0.1 µM.
For `CNc1cc(Nc2cccn(C[C@@H]3CCCCO3)c2=O)nc2c(C(=O)N[C@@H]3C[C@@H]3F)cnn12` [I-428], the IC50 in assay [1] (setting [3]) is > 50 µM; in assay [2], < 0.1 µM.
The like results for `CNc1cc(Nc2cccnc2OC)nc2c(C(=O)N[C@H]3CC[C@H]3O)cnn12` [I-429] were, in that order, > 50 µM and < 0.1 µM.
For the compound `CNc1cc(Nc2cccnc2OC2CC2)nc2c(C(=O)NCC(C)CO)cnn12` (centres unmarked) [I-435], the IC50 was > 50 µM in assay [1] (setting [3]) and 0.1 to 0.5 µM in assay [2].
